Measurements from PMC5524571 (Molecular cell, 2012).

Experiments:
[1] = molecular target: T1, MdfA (Escherichia coli, UniProt P0AEY8); details: several pH values (pH 6 to 8.5)
[2] = molecular target: T1, MdfA; experiment: substrate-induced proton release from purified MdfA; assay type: binding; details: unbuffered solution, 2 µM MdfA, 500 µM EtBr
[3] = molecular target: Asp34 (UniProt position 34, TYIGNDMIQPG); experiment: fluorescence; details: Detergent-solubilised, folded; competition between TPP and protons

T1 sequence (P0AEY8 whole entry): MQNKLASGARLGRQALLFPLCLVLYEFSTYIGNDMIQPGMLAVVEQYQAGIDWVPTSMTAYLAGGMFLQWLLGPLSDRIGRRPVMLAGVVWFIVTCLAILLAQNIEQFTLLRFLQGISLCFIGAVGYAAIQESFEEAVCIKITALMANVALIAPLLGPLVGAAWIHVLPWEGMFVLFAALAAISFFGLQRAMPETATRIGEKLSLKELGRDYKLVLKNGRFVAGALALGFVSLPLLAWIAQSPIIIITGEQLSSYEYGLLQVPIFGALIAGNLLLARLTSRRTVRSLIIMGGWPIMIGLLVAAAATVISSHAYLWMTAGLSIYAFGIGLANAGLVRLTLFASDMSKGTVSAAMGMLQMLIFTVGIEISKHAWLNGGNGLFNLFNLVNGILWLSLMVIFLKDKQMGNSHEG

c1ccc([P+](c2ccccc2)(c2ccccc2)c2ccccc2)cc1 [TPP]
dissociation constant [1]: the affinity of purified, detergent-solubilized MdfA for its substrate tetraphenylphosphonium (TPP) was measured

CC[n+]1c(-c2ccccc2)c2cc(N)ccc2c2ccc(N)cc21 [ethidium bromide]
substrate-induced proton release from purified MdfA (pH electrode) [2]: adding TPP or EtBr caused rapid acidification

Multidrug transporter MdfA (wild type, His6-tagged) (Escherichia coli)
pKa [3]: 6.84 ± 0.06
